Data on 33 compounds can be found in US20220242846A1, “ISOINDOLINONE COMPOUNDS” (Monte Rosa Therapeutics AG, priority 2019, published 2022).

Experiment [1] addresses T1, Full length wild-type cereblon CRBN (Homo sapiens, UniProt Q96SW2).
T1 construct: Full length wild-type cereblon CRBN (80.0 nM, 10 μL) was incubated in assay buffer
In words: Fluorescence polarization (FP) assay indicating cereblon binding. Conditions: CRBN 80.0 nM, fluorescent probe 5 nM, FP measured after 12 hours; read-out: rFP IC50. The text has this:
Protocol for Fluorescent Polarization Assay
Compound activity was monitored in a fluorescence polarization (FP) homogeneous assay using 1-[5-({2-[2-(2-{[2-(2,6-dioxopiperidin-3-yl)-1,3-dioxo-2,3-dihydro-1H-isoindol-4-yl]oxy}acetamido)ethoxy]ethyl}carbamoyl)pentyl]-3,3-dimethyl-2-[(1E,3E)-5-[(2E)-1,3,3-trimethyl-5-sulfo-2,3-dihydro-1H-indol-2-ylidene]penta-1,3-dien-1-yl]-3H-indol-1-ium-5-sulfonate as a fluorescent probe. Unless otherwise stated, all reagents were purchased from Sigma Aldrich. Enzymatic reactions were conducted in Perkin-Elmer Black 384 well ProxiPlate Plus (catalogue no. 6008269) in 10 μL total volume. Full length wild-type cereblon CRBN (80.0 nM, 10 μL) was incubated in assay buffer containing 20 mM HEPES (pH 8.0), […], 0.5 mM TCEP and 0.05% Tween 20 in the presence or absence of compound (300 nL). Inhibitors were stored as 10 mM DMSO stocks in an inert environment (low humidity, dark, low oxygen, room temperature) using the Storage Pod System. Compounds and DMSO were dispensed using the Echo E5XX (Labcyte Inc. USA) to give concentrations from 300 to 0.937 or 3000 to 9.3 nM in a 12 data point curve. […] Following incubation at room temperature for […], the assay was initiated by dispensing the probe to a final concentration of 5 nM (2.5 nL of a 20 μM stock) using the Echo E5XX. FP was measured after a period of 12 hours using a Pherastar plate reader (BMG Labtech, Germany) exciting at 590 nm and measuring the amount of parallel and perpendicular light at 675 nm. The FP signal was subsequently normalized to the no-compound control (i.e., DMSO). Analysis and IC50 values were derived using Dotmatics (Dotmatics UK) software.

A further experiment addresses GSPT1 (Homo sapiens, UniProt P15170+Q96SW2). Nature of the experiment: Immunofluorescence assay for GSPT1 degradation in CAL-51 cells. In kind it is cell-based. Conditions: compound treatment 6 hours. Set-up: CAL-51 cells were purchased from DSMZ (cat. Number ACC302); endogenous in cells; host or cells: CAL-51 (DSMZ ACC302). The procedure: CAL-51 cells were purchased from DSMZ (cat. Number ACC302), sub-cultured in 90% Dulbecco's MEM (4.5 g/L glucose, Gibco 11965) +10% heat inactivated FBS (BioConcept, 2-01F136I) and incubated at 37° C., 5% CO2. For the assay, imaging microtiterplate Cell Carrier 96 Ultra (Perkin Elmer 6055302) were pre-coated with Fibronectin (Sigma F085, 300 at 0.2 μg/ml) in PBS (1000, Gibco 14190) for 45 min at room temperature, rinsed with PBS and CAL-51 cells (30K cells/well) were plated and let to adhere overnight. Cells were treated with compounds typically using a serial dilution ranging from 30 μM to 0.1 nM for 6 hours. Compounds were stored at 10 mM DMSO stocks. Vehicle (DMSO), positive (CC-885, 10 μM) and rescue controls (positive control plus 0.2 μM bortezomib) were also included at this stage. Cells were subsequently rinsed with PBS and fixed in 10% Formalin solution (50 μl, Sigma HT5011)) for 20 mins at room temperature. Following three consecutive PBS washes (100 μl), cells were permeabilized in 0.1% Triton X-100 in PBS (Sigma 93443, 50 μl) for 15 mins at room temperature. Following three further PBS washes, 50 μl blocking buffer (1% BSA, Sigma A4503, in PBS) was added for 45 min for signal-to-noise reduction. Primary antibody (human GSPT1, Sigma HPA052488) was diluted in blocking buffer (dil. 1/300, 35 μl/well) and incubated with the cells overnight at 4° C. After three PBS washes, Alexa-fluor 488 coupled secondary antibodies (Invitrogen, A32731, dil. 1/1000), Alexa-fluor 647-Phalloïdin (Invitrogen, A22287, dil. 1/200) and DAPI (Thermo, #62248, dil.1/1000) were diluted in blocking buffer and incubated with the samples for 2 hours at room temperature. After three final PBS washes, samples were conserved in 1000 PBS in the dark, until measurement. Image acquisition was performed on the Operetta High-Content Imager (Perkin-Elmer). Fluorescence intensity of Alexa-Fluor 488 (GSPT1), Alexa-Fluor 647 (Actin) and DAPI (Nucleus) were measured. For the determination of GSPT1 DC50 values, a custom algorithm implemented in the PerkinElmer image analysis software Harmony-Acapella® was developed. After user-defined setting of adjustment parameters, the analysis was run identically without human intervention for all image fields. DAPI staining of the nuclei was used to determine the location of cells using standard nuclei detection modules. Segmentation artifacts were removed by threshold-based filters for area, roundness and intensity. The outline of the cells was determined analogously from the sum of the normalized, smoothed DAPI and Actin channel, starting from each nucleus. The Alexa-Fluor 488 (GSPT1) signal intensity in each cell was finally measured, in order to obtain a Mean intensity per cell. GSPT1 degradation (DC50) was calculated after normalization to controls and data import in CDD vault Database, using non-linear regression. Activity for GSPT1 Degradation Table 3 assigns each compound a code indicating the ability for GSPT1 degradation: A, B or C. According to the code, A represents a DC50 value of ≤100 nM, B represents a DC50 value >100 nM and ≤300 nM and C represents a DC50 value of >300 nM.

Where [2] appears, read: GSPT1 degradation, read-out: DC50.
Where [3] appears, read: read-out: Code: activity for GSPT1 degradation (DC50).

Usually IC50 stands for the concentration at which inhibition is half-maximal. As usually defined, the DC50 is the concentration at which degradation of the target reaches its halfway point.

Like-named read-outs stand apart in the source and are kept apart here. Some results are limits rather than exact numbers.

T1 sequence (Q96SW2 whole entry): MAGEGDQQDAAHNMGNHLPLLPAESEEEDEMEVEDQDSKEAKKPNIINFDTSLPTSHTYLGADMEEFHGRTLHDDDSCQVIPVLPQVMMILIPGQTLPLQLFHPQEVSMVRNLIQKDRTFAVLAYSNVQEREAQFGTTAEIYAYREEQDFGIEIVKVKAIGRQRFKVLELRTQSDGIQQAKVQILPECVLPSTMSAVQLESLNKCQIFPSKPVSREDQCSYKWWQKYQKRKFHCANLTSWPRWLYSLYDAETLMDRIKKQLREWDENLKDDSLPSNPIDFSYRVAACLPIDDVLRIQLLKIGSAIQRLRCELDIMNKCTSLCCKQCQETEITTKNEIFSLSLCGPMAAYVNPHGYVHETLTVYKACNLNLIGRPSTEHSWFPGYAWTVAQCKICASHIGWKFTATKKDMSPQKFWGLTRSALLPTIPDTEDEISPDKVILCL
Chain of GSPT1 (P15170 whole entry): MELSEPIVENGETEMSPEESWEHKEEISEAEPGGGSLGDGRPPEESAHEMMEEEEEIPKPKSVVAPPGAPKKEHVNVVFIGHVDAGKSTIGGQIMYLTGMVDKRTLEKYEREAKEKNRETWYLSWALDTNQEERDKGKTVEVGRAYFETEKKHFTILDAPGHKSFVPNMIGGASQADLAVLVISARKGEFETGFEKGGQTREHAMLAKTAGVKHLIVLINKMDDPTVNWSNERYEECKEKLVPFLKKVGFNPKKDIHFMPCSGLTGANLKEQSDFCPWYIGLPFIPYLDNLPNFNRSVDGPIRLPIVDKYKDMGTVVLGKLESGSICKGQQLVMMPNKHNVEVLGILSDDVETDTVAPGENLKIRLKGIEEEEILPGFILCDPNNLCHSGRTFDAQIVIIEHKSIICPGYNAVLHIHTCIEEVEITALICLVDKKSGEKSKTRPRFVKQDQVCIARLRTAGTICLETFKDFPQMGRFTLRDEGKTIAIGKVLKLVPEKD
Chain of GSPT1 (Q96SW2 whole entry): as the sequence (Q96SW2 whole entry) above
Chain of GSPT1 (Q16531 2-1140 partner limits assumed): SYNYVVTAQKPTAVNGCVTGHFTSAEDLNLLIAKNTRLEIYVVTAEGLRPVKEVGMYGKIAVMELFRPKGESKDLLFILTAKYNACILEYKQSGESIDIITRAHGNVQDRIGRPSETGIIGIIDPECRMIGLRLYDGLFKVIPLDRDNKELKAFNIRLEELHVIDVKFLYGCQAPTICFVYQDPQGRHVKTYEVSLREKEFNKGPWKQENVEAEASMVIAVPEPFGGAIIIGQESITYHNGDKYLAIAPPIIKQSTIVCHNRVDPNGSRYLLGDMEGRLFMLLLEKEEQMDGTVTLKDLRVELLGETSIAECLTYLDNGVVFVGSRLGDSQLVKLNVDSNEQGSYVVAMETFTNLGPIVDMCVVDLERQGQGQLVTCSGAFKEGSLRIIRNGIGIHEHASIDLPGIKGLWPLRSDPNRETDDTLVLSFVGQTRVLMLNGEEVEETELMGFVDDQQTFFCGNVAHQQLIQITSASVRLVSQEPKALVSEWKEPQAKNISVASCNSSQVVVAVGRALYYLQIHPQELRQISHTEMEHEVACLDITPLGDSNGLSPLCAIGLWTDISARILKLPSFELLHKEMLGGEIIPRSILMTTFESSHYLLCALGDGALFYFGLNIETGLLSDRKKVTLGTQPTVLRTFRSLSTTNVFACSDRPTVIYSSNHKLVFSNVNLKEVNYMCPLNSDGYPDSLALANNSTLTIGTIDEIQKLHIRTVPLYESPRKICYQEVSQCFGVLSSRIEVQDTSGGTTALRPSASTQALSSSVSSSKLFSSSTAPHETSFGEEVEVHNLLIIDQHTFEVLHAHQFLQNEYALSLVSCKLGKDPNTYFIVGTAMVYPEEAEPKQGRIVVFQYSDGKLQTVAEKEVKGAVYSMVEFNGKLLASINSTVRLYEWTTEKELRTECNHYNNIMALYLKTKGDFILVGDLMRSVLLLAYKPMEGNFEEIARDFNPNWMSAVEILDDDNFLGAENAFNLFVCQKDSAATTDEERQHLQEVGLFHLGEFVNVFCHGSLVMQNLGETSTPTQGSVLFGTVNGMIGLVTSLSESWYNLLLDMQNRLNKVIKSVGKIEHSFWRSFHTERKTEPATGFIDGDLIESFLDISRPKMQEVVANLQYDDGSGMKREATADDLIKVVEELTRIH

For the compound `Cn1nccc1-c1cccc(NC(=O)NCc2ccc3c(c2)C(=O)N(C2CCC(=O)NC2=O)C3)c1` (stereo not shown) [Compound 115], the IC50 in experiment [1] was 230 nM. Moreover, the DC50 at GSPT1 (setting [2]) was 299 nM; at GSPT1 (setting [3]), 100 to 300 nM.
Turning to `Cc1c(Cl)cc(NC(=O)NCc2ccc3c(c2)C(=O)N(C2CCC(=O)NC2=O)C3)cc1OCCN1CCOCC1` (stereo not shown) [Compound 127], the IC50 in experiment [1] came to 261 nM. Besides, on GSPT1 (setting [3]), the DC50 was no more than 100 nM.
The corresponding values for `Cn1ccc(NC(=O)NCc2ccc3c(c2)C(=O)N(C2CCC(=O)NC2=O)C3)c1` (stereo not shown) [Compound 128] are 302 nM and greater than 300 nM.
The corresponding values for `Cc1cc(NC(=O)NCc2ccc3c(c2)C(=O)N(C2CCC(=O)NC2=O)C3)sn1` (stereo not shown) [Compound 146] are 341 nM and greater than 300 nM.
The matching figures for `Cc1cnc(NC(=O)NCc2ccc3c(c2)C(=O)N(C2CCC(=O)NC2=O)C3)s1` (stereo not shown) [Compound 147]: 253 nM and greater than 300 nM.
Take `O=C1CCC(N2Cc3ccc(CNC(=O)Nc4cncs4)cc3C2=O)C(=O)N1` (stereo not shown) [Compound 103]: in experiment [1], the IC50 is 272 nM. For the same compound, at GSPT1 (setting [3]), the DC50 is greater than 300 nM.
The corresponding values for `O=C1CCC(N2Cc3ccc(CNC(=O)Nc4ccon4)cc3C2=O)C(=O)N1` (stereo not shown) [Compound 94] are 408 nM and greater than 300 nM.
Take `Cn1ccc(-c2cccc(NC(=O)NCc3ccc4c(c3)C(=O)N(C3CCC(=O)NC3=O)C4)c2)n1` (stereo not shown) [Compound 116]: the IC50 in experiment [1] is 139 nM. Besides, the DC50 at GSPT1 (setting [3]) is greater than 300 nM.
`O=C1CCC(N2Cc3ccc(CNC(=O)Nc4cc[nH]c4)cc3C2=O)C(=O)N1` (stereo not shown) [Compound 98]: the IC50 in experiment [1] stood at 404 nM. In addition, the DC50 on GSPT1 (setting [3]) is greater than 300 nM.
The matching figures for `O=C1CCC(N2Cc3ccc(CNC(=O)Nc4ccccn4)cc3C2=O)C(=O)N1` (stereo not shown) [Compound 123]: 570 nM and greater than 300 nM.
Regarding `Cc1c(Cl)cc(NC(=O)NCc2ccc3c(c2)C(=O)N(C2CCC(=O)NC2=O)C3)cc1C12CC1CN(C)C2` (stereo not shown) [Compound 155], the IC50 in experiment [1] came to 581 nM. The DC50 on GSPT1 (setting [2]) was 176 nM; at GSPT1 (setting [3]), 100 to 300 nM.
For the compound `Nc1cccc(NC(=O)NCc2ccc3c(c2)C(=O)N(C2CCC(=O)NC2=O)C3)c1` (stereo not shown) [Compound 80], the IC50 in experiment [1] is 515 nM. Besides, the DC50 at GSPT1 (setting [3]) was greater than 300 nM.
The matching figures for `O=C1CCC(N2Cc3ccc(CNC(=O)Nc4cccs4)cc3C2=O)C(=O)N1` (stereo not shown) [Compound 91]: 315 nM and greater than 300 nM.
The matching figures for `Cc1c(Cl)cc(NC(=O)NCc2ccc3c(c2)C(=O)N(C2CCC(=O)NC2=O)C3)cc1CN1CCN(C)CC1` (stereo not shown) [Compound 124]: 198 nM and greater than 300 nM.
The corresponding values for `O=C1CCC(N2Cc3ccc(CNC(=O)Nc4cccnc4)cc3C2=O)C(=O)N1` (stereo not shown) [Compound 95] are 432 nM and greater than 300 nM.
Consider `Cc1ccc(CNC(=O)NCc2ccc3c(c2)C(=O)N(C2CCC(=O)NC2=O)C3)cc1Cl` (stereo not shown) [Compound 152], for which the IC50 in experiment [1] was found to be 284 nM. Besides, at GSPT1 (setting [3]), the DC50 was greater than 300 nM.
The corresponding values for `Cc1cc(NC(=O)NCc2ccc3c(c2)C(=O)N(C2CCC(=O)NC2=O)C3)cc(CN2CCOCC2)c1C` (stereo not shown) [Compound 118] are 256 nM and no more than 100 nM.
The matching figures for `Cc1cc(C)c(NC(=O)NCc2ccc3c(c2)C(=O)N(C2CCC(=O)NC2=O)C3)c(Cl)c1Cl` (stereo not shown) [Compound 100]: 178 nM and greater than 300 nM.
In the case of `Cc1c(Cl)cc(NC(=O)NCc2ccc3c(c2)C(=O)N(C2CCC(=O)NC2=O)C3)cc1CN1CCC(N(C)C)CC1` (stereo not shown) [Compound 133], the IC50 in experiment [1] came to 252 nM. Moreover, the DC50 at GSPT1 (setting [3]) is greater than 300 nM.
The matching figures for `Cc1c(Cl)cc(NC(=O)NCc2ccc3c(c2)C(=O)N(C2CCC(=O)NC2=O)C3)cc1CC1COC(C)(C)OC1` (stereo not shown) [Compound 142]: 594 nM and no more than 100 nM.
The corresponding values for `Cc1nccn1-c1cccc(NC(=O)NCc2ccc3c(c2)C(=O)N(C2CCC(=O)NC2=O)C3)c1` (stereo not shown) [Compound 113] are 283 nM and greater than 300 nM.
The matching figures for `Cc1c(Cl)cc(NC(=O)NCc2ccc3c(c2)C(=O)N(C2CCC(=O)NC2=O)C3)cc1OCCN(C)C` (stereo not shown) [Compound 134]: 394 nM and greater than 300 nM.
In the case of `Cc1c(Cl)cc(NC(=O)NCc2ccc3c(c2)C(=O)N(C2CCC(=O)NC2=O)C3)cc1N(C)C` (stereo not shown) [Compound 129], in experiment [1], the IC50 was 350 nM. On GSPT1 (setting [3]), the DC50 is no more than 100 nM.
Turning to `O=C1CCC(N2Cc3ccc(CNC(=O)Nc4ccc(C(F)F)cc4)cc3C2=O)C(=O)N1` (stereo not shown) [Compound 114], the IC50 in experiment [1] stood at 443 nM. Further, the DC50 at GSPT1 (setting [3]) was greater than 300 nM.
Consider `Cc1c(Cl)cc(NC(=O)NCc2ccc3c(c2)C(=O)N(C2CCC(=O)NC2=O)C3)cc1CN1CC2CCC(C1)O2` (stereo not shown) [Compound 140], for which, in experiment [1], the IC50 is 559 nM.
`CCc1cnc(NC(=O)NCc2ccc3c(c2)C(=O)N(C2CCC(=O)NC2=O)C3)s1` (stereo not shown) [Compound 148]: the IC50 in experiment [1] amounted to 169 nM. Further, the DC50 on GSPT1 (setting [3]) was greater than 300 nM.
Consider `Cc1c(Cl)cc(NC(=O)NCc2ccc3c(c2)C(=O)N(C2CCC(=O)NC2=O)C3)cc1OCCCN(C)C` (stereo not shown) [Compound 117], for which, in experiment [1], the IC50 stood at 152 nM. For the same compound, the half-maximal degradation concentration (DC50) at GSPT1 (setting [3]) was greater than 300 nM.
For `O=C1CCC(N2Cc3ccc(CNC(=O)Nc4cccc(C(F)F)c4)cc3C2=O)C(=O)N1` (stereo not shown) [Compound 106], the IC50 in experiment [1] amounted to 353 nM. Besides, the 50% degradation concentration (DC50) is 188 nM on GSPT1 (setting [2]) and 100 to 300 nM on GSPT1 (setting [3]).
Regarding `O=C1CCC(N2Cc3ccc(CNC(=O)Nc4cc(F)cc(OC(F)(F)F)c4)cc3C2=O)C(=O)N1` (stereo not shown) [Compound 165], in experiment [1], the IC50 stood at 1630 nM. The DC50 at GSPT1 (setting [3]) is greater than 300 nM.
Regarding `Cc1c(CN2CCOCC2)cc(NC(=O)NCc2ccc3c(c2)C(=O)N(C2CCC(=O)NC2=O)C3)cc1OC(F)(F)F` (stereo not shown) [Compound 151], the IC50 in experiment [1] stood at 883 nM. The DC50 on GSPT1 (setting [3]) is no more than 100 nM.
The corresponding values for `O=C1CCC(N2Cc3ccc(CNC(=O)Nc4cc(C(F)(F)F)ns4)cc3C2=O)C(=O)N1` (stereo not shown) [Compound 149] are 1130 nM and greater than 300 nM.
The corresponding values for `Cn1ccc(NC(=O)NCc2ccc3c(c2)C(=O)N(C2CCC(=O)NC2=O)C3)n1` (stereo not shown) [Compound 88] are 351 nM and greater than 300 nM.
For `Cc1c(Cl)cc(NC(=O)NCc2ccc3c(c2)C(=O)N(C2CCC(=O)NC2=O)C3)cc1CN1CCN2CCC1C2` (stereo not shown) [Compound 154], the IC50 in experiment [1] is 688 nM.
